Measurements reported in PubChem BioAssay AID1963980 (Molecular Pharmacology Branch, DTP, NCI, 2024).

Tested on: 475296-252-R-J1-PDC spheroid viability
Experiment: Anticancer human tumor 475296-252-R-J1-PDC patient-derived rectal carcinoma cell line growth inhibition [PI3K]
Conditions: spheroids with HUVEC and MSC; for IC50: curve of first compound; for viability, T/C: stronger effect = lower value
Procedure, shortened: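 Targeted small molecules plus PI3K inhibitors, half-log dose series from Cmax (default top 10 microM), were applied to heterotypic spheroids of cancer cells with HUVEC and MSCs. Viability indicated growth inhibition.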

[1] = second compound 0.0316 µM, first compound 0.0316 µM
[2] = second compound 0.0316 µM, first compound 0.1 µM
[3] = second compound 0.0316 µM, first compound 0.316 µM
[4] = second compound 0.0316 µM, first compound 1 µM
[5] = second compound 0.0316 µM, first compound 3.16 µM
[6] = second compound 0.0316 µM, first compound 10 µM
[7] = second compound 0.1 µM, first compound 0.0316 µM
[8] = second compound 0.1 µM, first compound 0.1 µM
[9] = second compound 0.1 µM, first compound 0.316 µM
[10] = second compound 0.1 µM, first compound 1 µM
[11] = second compound 0.1 µM, first compound 3.16 µM
[12] = second compound 0.1 µM, first compound 10 µM
[13] = second compound 0.316 µM, first compound 0.0316 µM
[14] = second compound 0.316 µM, first compound 0.1 µM
[15] = second compound 0.316 µM, first compound 0.316 µM
[16] = second compound 0.316 µM, first compound 1 µM
[17] = second compound 0.316 µM, first compound 3.16 µM
[18] = second compound 0.316 µM, first compound 10 µM
[19] = second compound 1 µM, first compound 0.0316 µM
[20] = second compound 1 µM, first compound 0.1 µM
[21] = second compound 1 µM, first compound 0.316 µM
[22] = second compound 1 µM, first compound 1 µM
[23] = second compound 1 µM, first compound 3.16 µM
[24] = second compound 1 µM, first compound 10 µM
[25] = second compound 3.16 µM, first compound 0.0316 µM
[26] = second compound 3.16 µM, first compound 0.1 µM
[27] = second compound 3.16 µM, first compound 0.316 µM
[28] = second compound 3.16 µM, first compound 1 µM
[29] = second compound 3.16 µM, first compound 3.16 µM
[30] = second compound 3.16 µM, first compound 10 µM
[31] = second compound 10 µM, first compound 0.0316 µM
[32] = second compound 10 µM, first compound 0.1 µM
[33] = second compound 10 µM, first compound 0.316 µM
[34] = second compound 10 µM, first compound 1 µM
[35] = second compound 10 µM, first compound 3.16 µM
[36] = second compound 10 µM, first compound 10 µM
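Note: spheroids exposed to agents for seven days before readout.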

## CCCS(=O)(=O)Nc1ccc(F)c(C(=O)c2c[nH]c3ncc(-c4ccc(Cl)cc4)cc23)c1F + Cc1nc(NC(=O)N2CCCC2C(N)=O)sc1-c1ccnc(C(C)(C)C(F)(F)F)c1
Second compound 0.0316 µM
  IC50: > 10 µM
Second compound 0.1 µM
  IC50: > 10 µM
Second compound 0.316 µM
  IC50: > 10 µM
Second compound 1 µM
  IC50: > 10 µM
Second compound 3.16 µM
  IC50: > 10 µM
Second compound 10 µM
  IC50: > 10 µM
[1]
  viability, T/C: 88.8%
[2]
  viability, T/C: 95.5%
[3]
  viability, T/C: 92.2%
[4]
  viability, T/C: 91.5%
[5]
  viability, T/C: 80.5%
[6]
  viability, T/C: 94%
[7]
  viability, T/C: 106%
[8]
  viability, T/C: 94.6%
[9]
  viability, T/C: 88%
[10]
  viability, T/C: 81.2%
[11]
  viability, T/C: 98.7%
[12]
  viability, T/C: 100%
[13]
  viability, T/C: 85%
[14]
  viability, T/C: 94.8%
[15]
  viability, T/C: 98.2%
[16]
  viability, T/C: 92.6%
[17]
  viability, T/C: 91.1%
[18]
  viability, T/C: 96.3%
[19]
  viability, T/C: 83.1%
[20]
  viability, T/C: 97.3%
[21]
  viability, T/C: 88.2%
[22]
  viability, T/C: 89.8%
[23]
  viability, T/C: 89.3%
[24]
  viability, T/C: 82%
[25]
  viability, T/C: 83.6%
[26]
  viability, T/C: 92.8%
[27]
  viability, T/C: 87.6%
[28]
  viability, T/C: 92%
[29]
  viability, T/C: 89.9%
[30]
  viability, T/C: 73%
[31]
  viability, T/C: 80.4%
[32]
  viability, T/C: 82%
[33]
  viability, T/C: 82.1%
[34]
  viability, T/C: 80.4%
[35]
  viability, T/C: 76.3%
[36]
  viability, T/C: 66.1%

## C=CC(=O)N1CCN(c2nc(=O)n(-c3c(C)ccnc3C(C)C)c3nc(-c4c(O)cccc4F)c(F)cc23)C(C)C1 (stereo unspecified) + Cc1nc(NC(=O)N2CCCC2C(N)=O)sc1-c1ccnc(C(C)(C)C(F)(F)F)c1
Second compound 0.0316 µM
  IC50: > 10 µM
Second compound 0.1 µM
  IC50: > 10 µM
Second compound 0.316 µM
  IC50: > 10 µM
Second compound 1 µM
  IC50: > 10 µM
Second compound 3.16 µM
  IC50: > 10 µM
Second compound 10 µM
  IC50: > 10 µM
[1]
  viability, T/C: 90%
[2]
  viability, T/C: 79.2%
[3]
  viability, T/C: 99.9%
[4]
  viability, T/C: 89.7%
[5]
  viability, T/C: 106%
[6]
  viability, T/C: 102%
[7]
  viability, T/C: 105%
[8]
  viability, T/C: 75.8%
[9]
  viability, T/C: 106%
[10]
  viability, T/C: 82%
[11]
  viability, T/C: 104%
[12]
  viability, T/C: 108%
[13]
  viability, T/C: 90.4%
[14]
  viability, T/C: 107%
[15]
  viability, T/C: 96.4%
[16]
  viability, T/C: 103%
[17]
  viability, T/C: 96.8%
[18]
  viability, T/C: 95%
[19]
  viability, T/C: 88%
[20]
  viability, T/C: 94.1%
[21]
  viability, T/C: 99.8%
[22]
  viability, T/C: 97.5%
[23]
  viability, T/C: 109%
[24]
  viability, T/C: 95.8%
[25]
  viability, T/C: 83.6%
[26]
  viability, T/C: 85%
[27]
  viability, T/C: 95.2%
[28]
  viability, T/C: 87.2%
[29]
  viability, T/C: 92.9%
[30]
  viability, T/C: 93.8%
[31]
  viability, T/C: 94.6%
[32]
  viability, T/C: 87.8%
[33]
  viability, T/C: 95.5%
[34]
  viability, T/C: 94.2%
[35]
  viability, T/C: 95.2%
[36]
  viability, T/C: 80.6%

## CC1(C)CCC(Nc2ncc(C(F)(F)F)c(-c3c[nH]c4c(P(C)(C)=O)c(C#N)ccc34)n2)CN1 (stereo unspecified) + CC(Nc1ccc2c(c1)OCCn1cc(N3C(=O)OCC3C(F)F)nc1-2)C(N)=O
Second compound 0.00316 µM
  IC50: > 10 µM
Second compound 0.01 µM
  IC50: > 10 µM
Second compound 0.0316 µM
  IC50: > 10 µM
Second compound 0.1 µM
  IC50: > 10 µM
Second compound 0.316 µM
  IC50: > 10 µM
Second compound 1 µM
  IC50: > 10 µM
Second compound 0.00316 µM, first compound 0.0316 µM
  viability, T/C: 96.4%
Second compound 0.00316 µM, first compound 0.1 µM
  viability, T/C: 86.1%
Second compound 0.00316 µM, first compound 0.316 µM
  viability, T/C: 98.4%
Second compound 0.00316 µM, first compound 1 µM
  viability, T/C: 116%
Second compound 0.00316 µM, first compound 3.16 µM
  viability, T/C: 174%
Second compound 0.00316 µM, first compound 10 µM
  viability, T/C: 73.9%
Second compound 0.01 µM, first compound 0.0316 µM
  viability, T/C: 94.5%
Second compound 0.01 µM, first compound 0.1 µM
  viability, T/C: 81.3%
Second compound 0.01 µM, first compound 0.316 µM
  viability, T/C: 116%
Second compound 0.01 µM, first compound 1 µM
  viability, T/C: 136%
Second compound 0.01 µM, first compound 3.16 µM
  viability, T/C: 203%
Second compound 0.01 µM, first compound 10 µM
  viability, T/C: 82.8%
[1]
  viability, T/C: 91.2%
[2]
  viability, T/C: 99.7%
[3]
  viability, T/C: 96.9%
[4]
  viability, T/C: 136%
[5]
  viability, T/C: 187%
[6]
  viability, T/C: 77.1%
[7]
  viability, T/C: 96.6%
[8]
  viability, T/C: 103%
[9]
  viability, T/C: 106%
[10]
  viability, T/C: 136%
[11]
  viability, T/C: 170%
[12]
  viability, T/C: 72.9%
[13]
  viability, T/C: 82.9%
[14]
  viability, T/C: 92.5%
[15]
  viability, T/C: 104%
[16]
  viability, T/C: 111%
[17]
  viability, T/C: 147%
[18]
  viability, T/C: 66.5%
[19]
  viability, T/C: 94.7%
[20]
  viability, T/C: 88.4%
[21]
  viability, T/C: 96.4%
[22]
  viability, T/C: 105%
[23]
  viability, T/C: 113%
[24]
  viability, T/C: 63.1%
